{"source": "paper PMC12280919", "about": "“Arylsulfamates inhibit colonic Bacteroidota growth through a sulfatase-independent mechanism” (Proceedings of the National Academy of Sciences of the …, 2025)", "key": {"[1]": {"biological_target": "T1, BT4322 (Bacteroides thetaiotaomicron, UniProt Q89ZQ4)", "T1 construct": "gene BT_4322; recombinant in E. coli", "T1 sequence (Q89ZQ4 1-308)": "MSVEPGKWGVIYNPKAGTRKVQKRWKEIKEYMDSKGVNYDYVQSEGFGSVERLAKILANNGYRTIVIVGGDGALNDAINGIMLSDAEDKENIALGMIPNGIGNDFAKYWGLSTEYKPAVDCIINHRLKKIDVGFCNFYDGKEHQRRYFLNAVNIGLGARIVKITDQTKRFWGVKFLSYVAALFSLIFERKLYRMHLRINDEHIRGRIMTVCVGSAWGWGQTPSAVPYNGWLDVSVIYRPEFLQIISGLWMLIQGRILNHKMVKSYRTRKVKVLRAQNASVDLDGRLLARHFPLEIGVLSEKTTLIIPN", "assay": "thermal shift assay (SYPRO Orange DSF)", "format": "binding", "conditions": "pH 7.0, 100 mM BTP, 150 mM NaCl, 5% DMSO"}, "[2]": {"biological_target": "T2, PaAstA (Pseudomonas aeruginosa, UniProt P51691)", "T2 construct": "gene atsA; S1_4 sulfatase", "T2 sequence (P51691 2-536)": "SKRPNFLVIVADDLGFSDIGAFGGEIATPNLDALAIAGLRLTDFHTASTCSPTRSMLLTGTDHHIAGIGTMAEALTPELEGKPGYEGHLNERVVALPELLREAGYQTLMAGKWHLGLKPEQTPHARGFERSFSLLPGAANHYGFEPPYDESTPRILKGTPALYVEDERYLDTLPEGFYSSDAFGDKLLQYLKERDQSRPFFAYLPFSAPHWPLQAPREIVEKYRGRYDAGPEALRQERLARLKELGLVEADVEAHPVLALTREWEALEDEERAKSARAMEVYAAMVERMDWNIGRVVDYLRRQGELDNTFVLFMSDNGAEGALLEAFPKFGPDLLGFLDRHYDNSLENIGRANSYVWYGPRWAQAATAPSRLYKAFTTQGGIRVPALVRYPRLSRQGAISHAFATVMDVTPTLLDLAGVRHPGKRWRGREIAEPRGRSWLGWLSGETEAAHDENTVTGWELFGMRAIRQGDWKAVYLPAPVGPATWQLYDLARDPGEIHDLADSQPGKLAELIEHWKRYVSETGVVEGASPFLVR", "assay": "4-nitrophenolate release, A400", "format": "biochemical", "conditions": "1 mM substrate, pH 7.0, 5 mM CaCl2, 20-25 °C"}, "[3]": {"biological_target": "T3, BT1636^3S-Gal (Bacteroides thetaiotaomicron, UniProt Q8A789, S77C)", "T3 construct": "gene BT_1636; recombinant in E. coli TUNER, cobalt IMAC", "T3 sequence (Q8A789 23-509 S77C)": "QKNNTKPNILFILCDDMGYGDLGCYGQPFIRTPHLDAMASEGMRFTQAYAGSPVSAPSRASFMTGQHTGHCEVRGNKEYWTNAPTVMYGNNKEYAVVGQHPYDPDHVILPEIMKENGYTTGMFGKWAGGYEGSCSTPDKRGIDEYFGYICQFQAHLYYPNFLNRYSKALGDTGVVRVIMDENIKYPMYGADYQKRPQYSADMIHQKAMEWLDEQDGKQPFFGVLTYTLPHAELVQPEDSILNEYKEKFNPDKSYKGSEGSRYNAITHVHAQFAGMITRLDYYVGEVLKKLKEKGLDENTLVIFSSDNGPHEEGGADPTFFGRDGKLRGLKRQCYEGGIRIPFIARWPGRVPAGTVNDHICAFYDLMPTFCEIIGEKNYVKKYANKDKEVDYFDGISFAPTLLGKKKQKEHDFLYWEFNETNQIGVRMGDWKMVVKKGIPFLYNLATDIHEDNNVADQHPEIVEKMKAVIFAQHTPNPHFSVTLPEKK", "assay": "microfluidic mobility shift desulfation assay after overnight preincubation and dilution", "format": "biochemical", "conditions": "1 mM compound, only after preincubation; BODIPY-labelled sulfated substrate, 5 mM CaCl2, 28 °C; formylglycine form"}, "[4]": {"biological_target": "T2, PaAstA", "assay": "4-nitrophenyl sulfate hydrolysis, A400; also preincubation and jump dilution", "format": "biochemical", "conditions": "1 mM compound, 1 mM 4-nitrophenyl sulfate, pH 7.0, 5 mM CaCl2, 20-25 °C; irreversible, covalent"}}, "note": "Counter-ions that a name gives are not always drawn.", "data": [{"smiles": "Nc1ncnc2c1ncn2[C@@H]1O[C@H](COP(=O)(O)OP(=O)(O)OP(=O)(O)O)[C@@H](O)[C@H]1O", "note": "[ATP]", "values": [{"measurement": "dTm", "setting": "[1]; stabilizing", "value": "The substrate ATP also stabilized BT4322"}]}, {"smiles": "O=[N+]([O-])c1ccc(OS(=O)(=O)O)cc1", "note": "[4-nitrophenyl sulfate]", "values": [{"measurement": "4-nitrophenolate release, A400", "setting": "[2]", "value": "rapidly hydrolyzed by the family S1 steroid sulfatase PaAsta"}]}, {"smiles": "Cc1nc2sccn2c(=O)c1CCN1CCC(=C(c2ccccc2)c2ccc(F)cc2)CC1", "note": "[diacylglycerol kinase inhibitor I]", "values": [{"measurement": "dTm", "setting": "[1]; destabilizing", "value": "The DAGK-I inhibitor also caused concentration-dependent destabilization"}]}, {"smiles": "O=S(=O)(F)c1ccccc1", "note": "[compound 23, aryl sulfonylfluoride 23]", "values": [{"measurement": "% inhibition at 1 mM", "setting": "[3]", "value": "> 50", "unit": "%"}]}, {"smiles": "NS(=O)(=O)Oc1ccc(-c2ccccc2)cc1", "note": "[compound 2, 4-phenylphenyl sulfamate]", "values": [{"measurement": "% inhibition at 1 mM", "setting": "[4]", "value": "all arylsulfamates were broadly equivalent in their ability to completely inhibit both enzymes"}]}, {"smiles": "O=c1c2ccccc2[nH]c(=S)n1CCN1CCC(=C(c2ccc(F)cc2)c2ccc(F)cc2)CC1", "note": "[diacylglycerol kinase inhibitor II]", "values": [{"measurement": "dTm", "setting": "[1]; stabilizing", "value": "DAGK-II caused a concentration-dependent stabilization"}]}, {"smiles": "COc1cc2ccccc2cc1OS(N)(=O)=O", "note": "[compound 17, arylsulfamate 17]", "values": [{"measurement": "% inhibition at 1 mM", "setting": "[4]", "value": "all arylsulfamates were broadly equivalent in their ability to completely inhibit both enzymes"}]}]}
